# Source: patent publication US11851710B2, “Methods and materials for identifying metastatic malignant skin lesions and treating skin cancer” (Mayo Foundation for Medical Education and Research, priority 2014, dated 2023)
# Values joined by “and” are separate entries in the source; they are usually repeats but may differ in a detail not shown here. Identical values can stand only once. Like-named read-outs stand apart in the source and are kept apart here.
# What was measured:
# SPP1 promoter = SPP1 promoter dual luciferase (DUAL-GLO) screen of LOPAC library in WM858 cells; type: cell-based; details: WM858 cells with luciferase-tagged SPP1 promoter
# Description: FIG. 14 depict the luciferase construct for high-throughput screening. Genomic structure of the SPP1 gene is shown as well as a targeting approach. A DNA double-strand break was induced in exon (E) 2 of SPP1, 3′ of the ATG start codon by a custom-made zinc finger nuclease (ZFN), arrow. A targeting vector with 500 bp homology arms (HA, middle), Hygromycin resistance (HYGRO), a target promoter-driven firefly luciferase (LUC2P), and a CMV-pomoter driven renilla luciferase (HRLUC) was offered for repair at the time of the double-strand break. PA, PA terminator signal. Blue boxes, untranslated region; black boxes, translated region.
# Osteopontin (SPP1) is a proto-typical cancer-associated extracellular matrix gene and ligand of αv and α5β1 integrins. SPP1 is highly overexpressed in melanoma (Talantov et al., Clin. Cancer Res. 11:7234-42 (2005)) and its upregulation correlates with metastasis risk (Conway et al., Clin. Cancer Res. 15:6939-6946 (2009) and Mitra et al., Br. J. Cancer 103:1229-1236 (2010)). To rapidly screen chemical compounds for their ability to inhibit SPP1 expression in vitro, the endogenous SPP1 promoter of WM858 melanoma cells was tagged with a dual luciferase system using zinc finger nucleases. The SPP1-promoter drives firefly luciferase tagged with a protein degradation sequence (hPEST). A CMV-promoter driven renilla luciferase was used as a loading control (FIG. 14). […]
# in vitro [1] = type: cell-based; details: human
# Method: (§1) Pentamidine inhibited SPP1 mRNA in both WM858 (FIG. 15C) and M12 cells (FIG. 15D). […] Next, a red-fluorescent nuclear protein was stably expressed in M12 cells to automatically count nuclei over time (using the IncuCyte ZOOM system, Essen Bioscience), a surrogate measure of cell proliferation. Pentamidine reduced M12 proliferation with an ED50 of 40 μM.
# in vitro [2] = type: cell-based; details: human; remark: listed apart in the source
# Method: as §1
# SPP1 mRNA [3] = experiment: SPP1 mRNA by quantitative PCR in WM858 cells; type: cell-based
# Description: (§2) FIGS. 15A-15J illustrate that pentamidine inhibits SPP1 expression, proliferation, and invasion of melanoma cells. […] FIGS. 15B-15D illustrate that pentamidine inhibits SPP1 promoter activity in the DUAL-GLO® assay (FIG. 15B), but also by quantitative PCR in normal WM858 (FIG. 15C) and M12 cells (FIG. 15D). […] FIG. 15I is a chart illustrating that pentamidine injections reduce SPP1, ([…], and t-PA (PLAT) mRNA expression in M12 PDX. Average of three mice is shown. PENTA, Pentamidine; DABRA, Dabrafenib. WM858 and M12 are B-rafV600E metastatic melanoma cells.
# as §1
# SPP1 mRNA [4] = experiment: SPP1 mRNA by quantitative PCR in M12 cells; type: cell-based, human
# Description: as §2, §1
# β3 integrin (ITGB3) = experiment: Expression of β3 integrin (ITGB3) in melanoma cells; type: cell-based; details: FIG. 15E
# Description: as §2, §1
# t-PA (PLAT) = experiment: Expression of t-PA (PLAT) in melanoma cells; type: cell-based; details: FIG. 15E
# Description: as §2, §1
# M12 cells [5] = experiment: M12 proliferation, automated count of red-fluorescent nuclei (IncuCyte ZOOM); type: cell-based; details: Homo sapiens, nuclei counted over time, read-out: M12 proliferation ED50
# Method: Automated quantification of cell proliferation was by the INCUCYTE™ kinetic imaging system (Essen Bioscience). Approximately 2,000 cells were seeded into a 96-well cell culture dish, eight replicates per condition over the indicated time. Data analysis was with the INCUCYTE ZOOM software package.
# as §1
# M12 cells [6] = experiment: M12 invasion into Matrigel-embedded scratch wounds; type: cell-based, human; details: 2 mg/mL Matrigel, compared with Dabrafenib
# Description: as §2, §1
# [7] = Tolerability of i.m. Pentamidine in nude mice with intradermal M12 xenografts; type: in vivo; details: six consecutive days, female nude mice
# Method: (§3) To determine whether Pentamidine reduces SPP1 expression in vivo, M12 cells were injected intradermally into female nude mice and left to grow until xenograft tumors formed (FIGS. 15H and 15I). Then, four different doses of Pentamidine were injected intramuscularly (i.m.) into groups of three mice for six consecutive days. It was previously shown that serum concentration in patients injected with 4 mg/kg Pentamidine i.m. daily (FDA labeling) range from 0.2-1.4 μg/mL (0.3-2.4 μM). In rats, slightly lower levels can be achieved using 10 mg/kg i.m. daily (0.1-0.4 μg/mL) (Bernard et al., J. Inf. Dis. 152:750-754 (1985) and Waalkes et al., Clin. Pharma. Therap. 11:505-512 (1969)). In the current study, at the highest Pentamidine dose (80 mg/kg/daily), all mice died. Mice survived at 40 mg/kg/day, but appeared sick. […] Tumors were subsequently harvested, lysed, and analyzed by quantitative PCR. All doses of Pentamidine led to a reduction of SPP1, β3 integrin, and t-PA (PLAT) mRNA expression in tumor tissue (FIG. 15J).
# SPP1 mRNA [8] = experiment: SPP1 mRNA in M12 xenograft tumor tissue by quantitative PCR; type: in vivo, mice; details: all doses i.m. for six days
# Description: as §2
# as §3, with “(1969)).” for “(1969)). In the current study, at the highest Pentamidine dose (80 mg/kg/daily), all mice died. Mice survived at 40 mg/kg/day, but appeared sick.”, “All doses of Pentamidine led to a reduction of SPP1, β3 integrin, and t-PA (PLAT) mRNA expression in tumor tissue (FIG. 15J).” left out
# β3 integrin mRNA = β3 integrin mRNA in M12 xenograft tumor tissue by quantitative PCR; type: in vivo, mice; details: all doses i.m. for six days
# Description: as §2
# as §3, with “(1969)).” for “(1969)). In the current study, at the highest Pentamidine dose (80 mg/kg/daily), all mice died. Mice survived at 40 mg/kg/day, but appeared sick.”, “All doses of Pentamidine led to a reduction of SPP1, β3 integrin, and t-PA (PLAT) mRNA expression in tumor tissue (FIG. 15J).” left out
# t-PA (PLAT) mRNA = t-PA (PLAT) mRNA in M12 xenograft tumor tissue by quantitative PCR; type: in vivo, mice; details: all doses i.m. for six days
# Description: as §2
# as §3, with “(1969)).” for “(1969)). In the current study, at the highest Pentamidine dose (80 mg/kg/daily), all mice died. Mice survived at 40 mg/kg/day, but appeared sick.”, “All doses of Pentamidine led to a reduction of SPP1, β3 integrin, and t-PA (PLAT) mRNA expression in tumor tissue (FIG. 15J).” left out
# [9] = patients, 4 mg/kg i.m. daily (FDA labeling); cited from earlier work
# [10] = rats, 10 mg/kg i.m. daily; cited from earlier work
# β3 integrin = experiment: Cell surface β3 integrin expression by flow cytometry after overnight drug incubation; type: cell-based; details: B-rafV600E melanoma cells, 5 μM
# Method: (§4) FIGS. 13A-13P illustrate B-raf^V600E inhibits FAK to promote integrin surface expression. FIG. 13A: shRNAs 841, 102 and NC were induced in WM858 cells by IPTG for 5 days (n=4) followed by RNA quantitation. Genes regulated at 0 vs. 0.05 mM IPTG in 841 and 102 but not NC cells are shown. These were: ITGB3 (orange), FAK (blue). Light orange, light blue: up- or down-regulation, respectively, by either 841 or 102 shRNA. FIG. 13B: WM858 cells were transfected with FAK or EGFP cDNA. Regulated genes, FAK over EGFP cells, are shown in orange (up) or blue (down) (n=4). FIG. 13C: Flow cytometry of NC, 841 and 102 cells (un-induced vs. 0.05 mM IPTG for 5 days). FIG. 13D: Integrin cell surface mean intensities; mean.+−.s.d.; n=3; *, p<0.05; p values, Student's t-test; ns, not significant. FIG. 13E: Visualization of focal adhesions by paxillin staining on micropatterned fibronectin disks. FIGS. 13F and 13G: Proliferation speed in the absence (FIG. 13F) or presence (FIG. 13G) of FAK shRNAs; mean.+−.s.d.; n=8; *, p<0.05; p values, Student's t-test; ns, not significant. FIGS. 13H and 13I: Scratch wound healing in IPTG-induced cells; representative experiment (n=3). FIGS. 13J and 13K: Effect of IPTG-induced FAK knock-down on total (t) and phospho (p)-ERK; mean.+−.s.d.; n=4; *, p<0.05; p values, Student's t-test. FIG. 13L: Cell surface β1 and β3 integrin expression (flow cytometry) in B-raf^V600E and wild-type cells after overnight drug incubation; % expression relative to DMSO is shown. FIGS. 13M-13O: FAK/ERK levels in NHM and WM858 after overnight drug incubation (FIG. 13M); quantification of FAK (FIG. 13N) and ERK phosphorylation (FIG. 13O); mean.+−.s.d.; n=4; *, p<0.05; p values, Student's t-test. FIG. 13P: ERK activity in NC, 841 and 102 cells (0.05 mM IPTG for 5 days) after overnight drug incubation.
# Isopropyl β-D-1-thiogalactopyranoside (IPTG), 4′,6-Diamidino-2-phenylindole dihydrochloridemitomycin (DAPI), blebbistatin and PF-573228 were purchased from Sigma-Aldrich. Dabrafenib (GSK2118436) was purchased from Selleckchem. FAK antibody (06-543) was from EMD MILLIPORE®. FAK pY397 (44624G) antibody was from Life Technologies. Total ERK (9102) and phospho-ERK (4370) antibodies were from Cell Signaling. Paxillin (610051), ITGB3 (555754), ITGB1 (555443) and mouse IgG1 kappa (555749) antibodies were from BD Transduction Labs. Drugs were used at 5 μM final concentration. EGFP control cDNA was from (Lonza). […]
# (§5) PYK2, a FAK-like tyrosine kinase, could not be detected in WM858 cells, irrespective of endogenous FAK levels. WM858 cells carrying control (NC) or FAK-specific shRNAs (841 and 102) were then exposed to IPTG for 5 days, and changes in adhesion gene expression were subsequently quantified by PCR. […]
# β1 integrin = experiment: Cell surface β1 integrin expression by flow cytometry after overnight drug incubation; type: cell-based; details: 5 μM
# Method: as §4
# Isopropyl β-D-1-thiogalactopyranoside (IPTG), 4′,6-Diamidino-2-phenylindole dihydrochloridemitomycin (DAPI), blebbistatin and PF-573228 were purchased from Sigma-Aldrich. Dabrafenib (GSK2118436) was purchased from Selleckchem. FAK antibody (06-543) was from EMD MILLIPORE®. FAK pY397 (44624G) antibody was from Life Technologies. Total ERK (9102) and phospho-ERK (4370) antibodies were from Cell Signaling. Paxillin (610051), ITGB3 (555754), ITGB1 (555443) and mouse IgG1 kappa (555749) antibodies were from BD Transduction Labs. Drugs were used at 5 μM final concentration. EGFP control cDNA was from (Lonza). FAK cDNA was obtained from A. Huttenlocher, Addgene plasmid number 35039 (Chan et al., J. Biol. Chem., 285:11418-26 (2010)).
# PYK2, a FAK-like tyrosine kinase, could not be detected in WM858 cells, irrespective of endogenous FAK levels. WM858 cells carrying control (NC) or FAK-specific shRNAs (841 and 102) were then exposed to IPTG for 5 days, and changes in adhesion gene expression were subsequently quantified by PCR. […] Moreover, Dabrafenib-induced blockage of ERK activity could be partially reversed by a complete FAK knock-down in 102 cells (FIG. 13P).
# ERK = ERK activity (phospho-ERK) by Western blotting after overnight drug incubation; type: cell-based; details: WM858 melanoma cells, 5 μM
# Method: FIGS. 13A-13P illustrate B-raf^V600E inhibits FAK to promote integrin surface expression. FIG. 13A: shRNAs 841, 102 and NC were induced in WM858 cells by IPTG for 5 days (n=4) followed by RNA quantitation. Genes regulated at 0 vs. 0.05 mM IPTG in 841 and 102 but not NC cells are shown. These were: ITGB3 (orange), FAK (blue). Light orange, light blue: up- or down-regulation, respectively, by either 841 or 102 shRNA. FIG. 13B: WM858 cells were transfected with FAK or EGFP cDNA. Regulated genes, FAK over EGFP cells, are shown in orange (up) or blue (down) (n=4). FIG. 13C: Flow cytometry of NC, 841 and 102 cells (un-induced vs. 0.05 mM IPTG for 5 days). FIG. 13D: Integrin cell surface mean intensities; mean.+−.s.d.; n=3; *, p<0.05; p values, Student's t-test; ns, not significant. FIG. 13E: Visualization of focal adhesions by paxillin staining on micropatterned fibronectin disks. […] FIGS. 13M-13O: FAK/ERK levels in NHM and WM858 after overnight drug incubation (FIG. 13M); quantification of FAK (FIG. 13N) and ERK phosphorylation (FIG. 13O); mean.+−.s.d.; n=4; *, p<0.05; p values, Student's t-test. […]
# as §5
compound,measurement,setting,value
"N=C(N)c1ccc(OCCCCCOc2ccc(C(=N)N)cc2)cc1 [Pentamidine, 4,4′-[pentane-1,5-diylbis(oxy)]dibenzenecarboximidamide]","Normalized ratio: firefly signal normalized to renilla signal, then to DMSO-treated control wells",SPP1 promoter,< 0.25
same,EC50,in vitro [1],> 100 µM
same,EC50,in vitro [2],> 100 µM
same,SPP1 mRNA,SPP1 mRNA [3],inhibited
same,SPP1 mRNA,SPP1 mRNA [4],inhibited
same,expression of β integrin,β3 integrin (ITGB3),reduced
same,expression of t-PA (PLAT),t-PA (PLAT),reduced
same,EC50,M12 cells [5],40 µM
same,Matrigel invasion,M12 cells [6],more effectively than Dabrafenib
same,survival / tolerability of mice,[7]; 40 mg/kg/day i.m.,appeared sick
same,survival / tolerability of mice,[7]; 80 mg/kg/daily i.m.,all mice died
same,survival / tolerability of mice,"[7]; other two doses, specifically 8 mg/kg/day i.m.",well tolerated
same,SPP1 mRNA expression in tumor tissue,SPP1 mRNA [8],reduction
same,β3 integrin mRNA expression in tumor tissue,β3 integrin mRNA,reduction
same,t-PA (PLAT) mRNA expression in tumor tissue,t-PA (PLAT) mRNA,reduction
same,serum concentration,[9],0.2-1.4 μg/mL and 0.3-2.4 μM
same,serum concentration,[10],0.1 to 0.4 µg/mL
CS(=O)(=O)c1cccc(CNc2nc(Nc3ccc4c(c3)CCC(=O)N4)ncc2C(F)(F)F)c1 [PF-573228],β3 integrin surface levels,β3 integrin,induced
same,β1 integrin surface levels,β1 integrin; B-raf wild-type melanoma cells,not
same,β1 integrin surface levels,β1 integrin; B-rafV600E melanoma cells,induced
same,ERK activity,ERK,induce
